Tests used:
[1] = Hydroxyl radical production, hydroxylation of benzoate by H2O2; details: sodium benzoate + H2O2, cell-free
Protocol: The effects of the compounds on free radical production were evaluated in a cell-free system. In vitro hydroxyl radical production was determined by the hydroxylation of benzoate by H2O2 as described in Giardino et al., Diabetes 47:1114-1120, 1998. In brief, 30 mmol/l sodium benzoate in PBS buffer, pH 7.4, was incubated with 10 mmol/l H2O2 overnight at 37° C. alone and in the presence of various amounts of inhibitor compounds. After incubation, aliquots from each sample were analyzed for fluorescence (305 nm excitation; 408 nm emission). Results were expressed as the amount of salicylate equivalent (μM) produced by the hydroxylation of benzoate. Mannitol, a known hydroxyl radical scavenger, was included in the experiment as control.

STZ-Diabetic Rats [2] = assay: Plasma lipids and plasma lipid hydroperoxides in STZ-diabetic rats (Example 13); format: in vivo, rat; details: for reduction of plasma lipid hydroperoxides: diabetic animals; for reduction in plasma cholesterol / reduction in plasma triglycerides: diabetic rats compared with untreated diabetic animals; for plasma cholesterol / plasma triglycerides: treated diabetic rats, means/SEM; for plasma cholesterol: untreated diabetic 136±13; for plasma triglycerides: untreated diabetic 598±110
Protocol: (§1) Diabetes was induced in male Sprague-Dawley rats by a single i.p. injection of STZ (65 mg/kg in citrate buffer, pH 4.5) after an overnight fast. Non-diabetic animals were injected with citrate buffer only. One week after STZ injection, only animals with >20 mmol/L plasma glucose were classified as diabetic and included in the study. Diabetic rats were divided randomly into the following treatment groups: diabetic untreated (D); and two diabetic treatment groups, receiving either LR-9 (D+LR-9) or LR-74 (D+LR-74) at 50 mg/L in drinking water. Three non-diabetic groups were studied concurrently: one untreated non-diabetic group (ND), and two non-diabetic groups treated with either LR-9 (ND+LR-9) or LR-74 (ND+LR-74) at 50 mg/L in drinking water.
At 32 weeks of the study, the rats were killed by over-anesthetization with isoflourane and cardiac puncture. Blood samples were collected from each animal and transferred accordingly into heparinized vacutainer tubes and were later centrifuged for plasma isolation. Aliquots of these plasma samples were stored at −70° C. until the time of analysis. Kidneys were removed immediately, decapsulated and rinsed in PBS buffer. Sections of the left kidneys were stored in 10% neutral buffered formalin for subsequent microscopic examinations and AGE immunohistochemistry. Sections of abdominal skin and tail of each individual rat were removed, rinsed in PBS buffer and stored at −70° C. for subsequent AGE quantification and crosslinking analyses.

STZ-Diabetic Rats [3] = assay: Body weight and glycemia in STZ-diabetic rats (Examples 10 and 14); format: in vivo, rat; details: for Body Weight / HbA1c / Plasma Glucose: 50 mg/L in drinking water, 32 weeks; for effect on hyperglycemia and body weight gains: either ND or D rats
Protocol: as §1
(§2) Both plasma glucose and body weight were checked before administration of the drug, and no differences were detected among the three diabetic treatment groups or among the three non-diabetic groups. All animals were housed individually and were given free access to food and water. Glycemic control and body weights were monitored periodically. To limit hyperglycemia and ensure that animals maintained body weight, diabetic animals received 3 IU of ultralente insulin two to three times per week. The study was carried out over 32 weeks. Progression of renal dysfunction was assessed by measuring urinary albumin and plasma creatinine concentrations according to known methods. Figarola et al., Diabetologia 46:1140-115, 2003.
as §2, with “Rats were treated and divided into treatment groups as described in Example 10. Both” for “Both”, “weeks.” for “weeks. Progression of renal dysfunction was assessed by measuring urinary albumin and plasma creatinine concentrations according to known methods. Figarola et al., Diabetologia 46:1140-115, 2003.”

[4] = Superoxide production, methylglyoxal with N-α-acetyl-lysine, WST-1 assay
Protocol: The superoxide radical scavenging activity of the compounds was evaluated using the WST-1 method described in Ukeda et al., Anal. Sci. 18:1151-1154, 2002. Briefly, methylglyoxal, was incubated with or without N-α-acetyl-lysine in 0.05 M chelex-treated sodium phosphate buffer, pH 7.4, in the presence of various concentrations of the inhibitor compounds. The production of superoxide was monitored spectrophotometrically at 438 nm, and compared with superoxide dismutase and Tiron, two known superoxide radical scavengers.

STZ-Diabetic Rats [5] = assay: Total plasma/serum triglycerides and cholesterol in STZ-diabetic rats (Example 2); format: in vivo, rat; details: 32 weeks, towards levels of non-diabetic animals
Protocol: Male Sprague-Dawley rats (about 175 to 200 g) were adapted for one week prior to treatment, then rendered diabetic by intra-peritoneal injection of STZ (65 mg/kg in citrate buffer, pH 4.5) after an overnight fast. Control (non-diabetic) animals were injected with the buffer only. Diabetes was confirmed by measuring the plasma glucose concentrations 7 days after Streptozotocin (STZ)-injection. Only animals with a plasma glucose concentration greater than 20 mmol were classified as diabetic and used in the study. These diabetic rats were divided randomly into an untreated diabetic control group and a diabetic treatment group. The treatment group received an LR compound at 50 mg/l in their drinking water throughout the duration of the study (32 weeks for LR-90; 30 weeks for LR-9 and LR-74). All animals were housed individually and were given free access to food and water.
Blood (from the tail vein) and urine samples were collected from rats for glycemic control analysis and albuminuria measurements. Glycemia was monitored every 8 weeks by measuring plasma glucose and glycated hemoglobin. Plasma or serum also was tested for total cholesterol and total triglycerides. Progression of renal dysfunction was assessed by measuring urinary albumin to creatinine ratio (UA/Cr) and serum or plasma creatinine. […]

STZ-Diabetic Rats [6] = assay: AGE immunohistochemistry of kidney (6D12 anti-CML antibody); format: in vivo, rat
Protocol: For immunohistochemical AGE staining, formalin-fixed […] embedded sections (2 μm thick) were mounted on slides coated with 2-aminopropyltriethoxy silane, baked for 3 hours at 58° C., deparaffinized, rinsed with 3% hydrogen peroxide, and incubated with Proteinase K (0.5 mg/mL) for 5 minutes at room temperature. These sections were washed with rinse buffer and blocked with Protein Blocking Agent for 5 minutes and subsequently incubated with 6D12 anti-AGE mouse monoclonal antibody specific for CML for 30 minutes at room temperature. After washing with rinse buffer, the sections were incubated with EnVision™ with labeled polymer peroxidase-conjugated mouse anti-IgG for 30 minutes at room temperature, followed by detection with 3,3′-diaminobenzidine tetrahydrochloride solution as chromogen and 50% hematoxylin as counterstain.

Row | Compound | inhibition of hydroxyl radical formation [1] | reduction of plasma lipid hydroperoxides (STZ-Diabetic Rats [2]) [%] | reduction in plasma cholesterol (STZ-Diabetic Rats [2]) | reduction in plasma triglycerides (STZ-Diabetic Rats [2]) [%] | plasma cholesterol (STZ-Diabetic Rats [2]) [mg/dL] | plasma triglycerides (STZ-Diabetic Rats [2]) [mg/dL] | Body Weight (STZ-Diabetic Rats [3]; diabetic (D) rats) [g] | HbA1c (STZ-Diabetic Rats [3]; diabetic (D) rats) [%] | Plasma Glucose (STZ-Diabetic Rats [3]; diabetic (D) rats) [mmol/L] | effect on hyperglycemia and body weight gains (STZ-Diabetic Rats [3]) | Body Weight (STZ-Diabetic Rats [3]; non-diabetic (ND) rats) [g] | HbA1c (STZ-Diabetic Rats [3]; non-diabetic (ND) rats) [%] | Plasma Glucose (STZ-Diabetic Rats [3]; non-diabetic (ND) rats) [mmol/L] | effect on superoxide production [4] | reduction of serum cholesterol (STZ-Diabetic Rats [5]) [%] | reduction of serum triglycerides (STZ-Diabetic Rats [5]) [%] | AGE staining in kidney glomeruli and cortical tubules (STZ-Diabetic Rats [6])
1 | CC(C)(Oc1ccc(NC(=O)c2ccc3ccccc3c2)cc1)C(=O)O [LR-9, 4-(2-napthylcarboxamido) phenoxyisobutyric acid] | strong inhibitors | 35 | ≤ 30% | ≤ 60 | 96 ± 5 | 239 ± 50 | 288.0 ± 29.3 | 2.0 ± 0.1 | 27.1 ± 0.5 | no effect | 681.0 ± 4.6 | 0.9 ± 0.1 | 8.2 ± 0.5 | – | – | – | –
2 | CC(Oc1cccc2cccnc12)C(=O)O (stereo not drawn) [LR-74, 2-(8-quinolinoxy) propionic acid] | strong inhibitors | 45 | approximately 30% | ~70 | 93 ± 2 | 161 ± 29 | 314.7 ± 21.6 | 2.1 ± 0.1 | 26.9 ± 0.6 | no effect | 744.0 ± 25.8 | 0.9 ± 0.1 | 6.8 ± 0.4 | little or no effect | – | – | –
3 | methylene bis(4,4′-(2-chlorophenylureidophenoxyisobutyric acid) [LR-90] | – | – | – | – | – | – | – | – | – | – | – | – | – | – | 50 | 50 | visibly reduced
